# Measured values taken from patent US20100331297A1, “MODULATION OF PROTEIN TRAFFICKING” (FOLDRX PHARMACEUTICALS, INC., priority 2007, published 2010).
# What was measured:
# Type in all cases: cell-based
# ypt1^ts cells = experiment: Rescue of growth of ypt1^ts mutant yeast (OD600); conditions: Saccharomyces cerevisiae, read-out: Ypt1-ts MRC (Minimum Rescue Concentration), ypt1^ts cells, 35° C. and 37° C., OD600; multiple results separated by a comma
# Summary of the method: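 Log-phase ypt1^ts cells (N121I/A161V) in SC 2% glucose were diluted to OD600 0.003 and treated with compound at 50 μM-0.05 μM final in 1% DMSO. Cultures were incubated at 35° C. (read at 24 and 40 h) or 37° C. (read at 40 h), with rescue measured as OD600 growth and reported as minimum rescue concentration.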
# ΔF508 CFTR [1] = target: T1, ΔF508 CFTR (Homo sapiens, UniProt P13569, DEL508-508); experiment: Ussing chamber assay, short-circuit current in FRT cells stably expressing ΔF508 CFTR; set-up: expressed in transfected cells; host or cells: Fischer rat thyroid (FRT) cells; conditions: FRT ΔF508 CFTR monolayers treated 24 hours; forskolin, isobutylmethylxanthine, genistein
# Experimental: Ussing Chamber Assay: Fischer rat thyroid (FRT) cells stably expressing ΔF508 CFTR (cystic fibrosis transmembrane conductance regulator) were cultured as previously described in Am J. Physiol. (1994) 266 L405-413. Monolayers of cells were grown on Snapwell inserts (Corning Inc.) at the air/liquid interface. The monolayers were treated with compound for 24 hours. The inserts are mounted in Ussing chambers (Harvard Apparatus) and short-circuit currents are measured using a voltage clamp apparatus (WPI, Inc.). A mucosal to serosal gradient in chloride concentration is imposed and the basolateral membrane is permeabilized using amphotericin. Short circuit currents are measured upon addition of the agonists forskolin, isobutylmethylxanthine, and genistein to maximally activate CFTR.
# ΔF508 CFTR [2] = target: T1, ΔF508 CFTR; experiment: Corrector activity, YFP halide (iodide) quenching assay in FRT cells expressing ΔF508 CFTR; set-up: expressed in transfected cells; host or cells: Fischer rat thyroid (FRT) cells; conditions: Corrector EC50, FRT cells ΔF508 CFTR/YFP, 24 hours with compound at 37° C., forskolin and genistein
# Summary of the method: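 FRT cells co-expressing ΔF508 CFTR and halide-sensitive YFP were incubated 24 h at 37° C with compounds, then stimulated 30 min at 37° C in PBS with forskolin and genistein. Endpoint fluorescence after iodide injection was normalized to initial reading; EC50 from 4-parameter fit with bottom constrained to DMSO control.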
# T1 sequence (P13569 with tags, fused parts or gaps DEL508-508): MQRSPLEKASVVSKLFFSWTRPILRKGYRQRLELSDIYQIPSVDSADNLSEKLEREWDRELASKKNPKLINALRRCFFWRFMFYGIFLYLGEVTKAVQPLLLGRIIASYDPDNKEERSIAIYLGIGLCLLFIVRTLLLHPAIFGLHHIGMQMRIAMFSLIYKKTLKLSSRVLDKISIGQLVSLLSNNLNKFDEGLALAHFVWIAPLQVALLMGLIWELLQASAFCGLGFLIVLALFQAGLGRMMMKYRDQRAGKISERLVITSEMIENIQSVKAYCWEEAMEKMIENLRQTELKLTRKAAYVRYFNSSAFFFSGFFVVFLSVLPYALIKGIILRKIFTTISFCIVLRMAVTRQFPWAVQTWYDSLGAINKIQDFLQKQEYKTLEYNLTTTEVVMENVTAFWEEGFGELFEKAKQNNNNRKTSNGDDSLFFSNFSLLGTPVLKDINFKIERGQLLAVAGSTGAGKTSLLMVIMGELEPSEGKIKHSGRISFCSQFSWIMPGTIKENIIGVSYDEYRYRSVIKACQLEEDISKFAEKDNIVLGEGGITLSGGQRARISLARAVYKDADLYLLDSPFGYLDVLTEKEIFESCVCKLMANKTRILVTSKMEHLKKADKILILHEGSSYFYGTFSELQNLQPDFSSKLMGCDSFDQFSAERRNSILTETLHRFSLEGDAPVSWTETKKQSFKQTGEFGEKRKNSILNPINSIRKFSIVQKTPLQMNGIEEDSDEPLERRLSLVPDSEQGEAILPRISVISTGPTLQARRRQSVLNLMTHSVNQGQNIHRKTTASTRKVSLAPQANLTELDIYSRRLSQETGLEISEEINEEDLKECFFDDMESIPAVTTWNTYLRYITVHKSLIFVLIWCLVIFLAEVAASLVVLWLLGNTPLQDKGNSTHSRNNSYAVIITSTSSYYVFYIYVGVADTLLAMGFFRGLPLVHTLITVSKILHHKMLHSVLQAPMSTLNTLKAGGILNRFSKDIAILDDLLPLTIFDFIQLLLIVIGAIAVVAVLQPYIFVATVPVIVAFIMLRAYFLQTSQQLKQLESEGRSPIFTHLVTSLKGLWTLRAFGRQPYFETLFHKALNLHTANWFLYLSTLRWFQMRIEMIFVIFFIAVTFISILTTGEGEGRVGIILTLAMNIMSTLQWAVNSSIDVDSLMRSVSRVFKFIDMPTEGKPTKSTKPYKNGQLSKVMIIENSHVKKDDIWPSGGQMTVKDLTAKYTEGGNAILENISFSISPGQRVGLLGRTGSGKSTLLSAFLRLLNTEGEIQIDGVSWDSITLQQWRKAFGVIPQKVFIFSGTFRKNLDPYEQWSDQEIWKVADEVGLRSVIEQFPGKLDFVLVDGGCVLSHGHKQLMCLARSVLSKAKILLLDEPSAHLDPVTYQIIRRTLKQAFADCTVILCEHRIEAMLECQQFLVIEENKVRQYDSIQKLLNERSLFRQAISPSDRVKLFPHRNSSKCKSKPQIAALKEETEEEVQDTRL
smiles,measurement,setting,value
CC(C)(C)n1nc(-c2ccc(Cl)cc2)c2c(N)ncnc21 [compound 25],minimal effective concentration,ypt1^ts cells,< 10 µM
same,short circuit current after the addition of all three agonists,ΔF508 CFTR [1],~65 uA/cm^2
same,EC50,ΔF508 CFTR [2],2 to 5 µM
